What was measured:
[1] = test system: sorted sca1+ckit+ fetal-liver HSPCs; experiment: Defined T cell differentiation assay on adsorbed ligand, flow cytometry; assay type: cell-based, mouse
Procedure: FIG. 2a: Schematic for 2D coated DL4 assay, in which sorted E13.5 sca1+ckit+ fetal-liver HSPCs are seeded on coated DL4 ligand in standard 96-well flat bottom plates at 1000 cells/well density in 200 μl test media containing cytokines 25 ng/mL SCF, 5 ng/mL Flt3L and 1 ng/mL IL7; cells are re-fed on day 4 with fresh media containing cytokines; on day 7, cells are assayed for surface marker expression using flow cytometry.
Commercially available DL4-Fc was purchased and used for experiments from Sino Biologicals (Cedarlane Labs, Burlington, Ontario, Canada) or manufactured in-house as described below. DL4-Fc was diluted in chilled phosphate-buffered saline (PBS) at 10 μg/mL or […] and 50 μL/well was coated in standard tissue-culture 96-well plates overnight at 4° C. Wells were washed once with PBS prior to seeding cells to remove any unbound ligand from the wells. For certain experiments, wells were also coated overnight with 50 μL/well PBS containing DL4-Fc and VCAM-1-Fc (R&D) or fibronectin (Sigma) at concentrations described herein.
Sorted sca1+ckit+ HSPCs were cultured at 1000 cells/well (corresponding to 3.1×10^3 cells/cm^2) in DL4-coated 96-well plates in serum-free Iscove modified Dulbecco medium (Gibco, Rockville, MD) with 20% bovine serum albumin, insulin, and transferrin serum substitute (BIT; Stemcell Technologies), 1% GlutaMAX™ (Gibco) and 1 μg/mL low-density lipoproteins (Calbiochem, La Jolla, CA) [IMDM+BIT]. For positive control cultures, OP9 serum medium was used, composed of αMEM medium (Gibco) and 16% FBS (Hyclone™, GE Health). Serum-free αMEM+BIT medium was prepared exactly as IMDM+BIT medium except using αMEM (Gibco) as the base medium. OP9 serum medium, αMEM+BIT or IMDM+BIT serum free medium was added at 200 μL/well supplemented with 25 ng/mL Stem Cell Factor (SCF; R&D Systems, Minneapolis, MN), 5 ng/mL FMS-like Tyrosine Kinase 3 Ligand (Flt3L; R&D Systems) and 1 ng/mL Interleukin-7 (IL-7; R&D Systems) with a 50% medium exchange step at day 4 containing 2-fold concentrated cytokines as described previously^9. Design of Experiment (DOE) in silico modeling was performed using Design-Expert® (v10) using response surface method to investigate the combinatorial desirability of different concentrations of SCF, Flt3L and IL-7 for maximizing DN3 T-cell yield and minimizing the volume of IMDM+BIT medium. After DOE optimization, IMDM+BIT serum-free medium was added at 50 μL/well supplemented with 50 ng/mL SCF (R&D Systems), 10 ng/mL Flt3L (R&D Systems) and 10 ng/mL IL-7 (R&D Systems) unless described otherwise in the text with no medium exchange for the length of the assay. For the candidate factor screening in serum-free IMDM+BIT medium, the following proteins or small molecules were used at the concentrations listed: JAK inhibitor I (50 nM; EMD Millipore), IL-11 (10, 50, and 100 ng/mL; R&D Systems), IL-6 (10, 50, and 100 ng/mL; R&D Systems), IL-6R (100 ng/mL; R&D Systems), Ccl25 (1.5 μg/mL; R&D Systems), IL-7 (50, 100, and 200 ng/mL; R&D Systems), SDF1α (Cxcl12; 200 ng/mL; R&D Systems), and Leukemia Inhibitory Factor (LIF; 0.1, 1, and 10 ng/mL; EMD Millipore).
Surface marker staining was performed with conjugated rat anti-mouse antibodies (BD Biosciences, San Jose, CA, Table 1). All samples were analyzed on a FACSCanto™ or FACS LSRFortessa™ flow cytometer (BD Biosciences). At day 7 of culture, cells were lifted off the plate with multiple HF rinses, stained at 1:400 dilution with antibodies against CD45, CD25, CD44, CD90, CD11 b and CD19 for 20 minutes on ice. Human progenitor T-cells were stained at 1:100 dilution with antibodies against CD34, CD7, CD5 and CD45RA. Integrin expression was analyzed using antibodies against α4, β1, and β7 integrin subunits on Sca-1+cKit+ mouse HSPCs and CD34+ human umbilical blood cells. […]

[2] = test system: human umbilical cord blood-derived CD34+ HSPCs; experiment: Human CD34+ HSPC progenitor T cell differentiation on coated plates; assay type: cell-based; conditions: serum-free IMDM+BIT
Procedure: For human HSPC culture, umbilical cord blood samples were collected from consenting donors according to ethically approved procedures at Mount Sinai Hospital. CD34+ cells were isolated from the red blood cell (RBC)-lysed cord blood fraction using the EasySep™ Human CD34 Positive Selection Kit (Stemcell Technologies) according to the manufacturer's instructions. Flow cytometry was performed after every enrichment to ensure CD34 frequencies were greater than 95%. CD34+ HSPCs were cultured for 14 days on DL4 and VCAM-1 coated 96-well plates at higher seeding densities of 12,500 HSPCs/cm^2 (corresponding to 4000 cells/well). One complete medium exchange was performed at day 7 of culture and cells were returned to the same DL4 and VCAM-1 coated plates. For certain experiments, DL4-Fc was coated alone or with RetroNectin® (Takara Shuzo) or fibronectin (Sigma Aldrich) as described in the text. CD34+ cells were cultured in serum-free Iscove modified Dulbecco medium (Gibco) with 20% bovine serum albumin, insulin, and transferrin serum substitute (BIT; Stemcell Technologies), 1% GlutaMAX™ (Gibco) and 1 μg/mL low-density lipoproteins (Calbiochem). The medium was added at 50 μL/well supplemented with 100 ng/mL SCF (R&D Systems, Minneapolis, MN), 100 ng/mL Flt3L (R&D Systems), 100 ng/mL Tpo (R&D Systems) and 100 ng/mL IL-7 (R&D Systems).
Surface marker staining was performed with conjugated rat anti-mouse antibodies (BD Biosciences, San Jose, CA, Table 1). All samples were analyzed on a FACSCanto™ or FACS LSRFortessa™ flow cytometer (BD Biosciences). At day 7 of culture, cells were lifted off the plate with multiple HF rinses, stained at 1:400 dilution with antibodies against CD45, CD25, CD44, CD90, CD11 b and CD19 for 20 minutes on ice. […] Integrin expression was analyzed using antibodies against α4, β1, and β7 integrin subunits on Sca-1+cKit+ mouse HSPCs and CD34+ human umbilical blood cells. […] Flow data was analyzed and batch processed using FlowJo® software and further analyzed in Python (version 2.7.10).

[3] = test system: double negative (DN; CD4− CD8−) thymocytes; experiment: DL4-Fc ligand binding to thymocytes
Procedure: Progenitor T cell development in the thymus is characterized by four sequential stages commonly referred to as DN1, DN2, DN3 and DP (DN=double negative and DP=double positive for CD4 and CD8 expression). An ideal defined progenitor T cell differentiation assay should aim to support the expansion of DN3 T cells that are exclusively committed to the T lymphoid lineage. […] Conventional in vitro T cell differentiation is carried out on an OP9 stromal feeder layer in serum-containing medium. The obvious first step in developing a defined assay for T cell differentiation is to establish conditions that eliminate the requirements for both serum and feeders. To replace the OP9 feeder layer, DL4-Fc protein was generated and the purity and functionality of the ligand to bind DN T cells and not DP T cells was verified, as these cell types differentially express the Notch-1 receptor (FIGS. 1a-c). […] Cultures were re-fed after four days and analyzed for progenitor T cell surface markers after seven days (FIG. 2a). Parallel cultures were carried out on untreated surfaces (negative control) and OP9-DL4 stromal co-culture (positive control based on which SCF, Flt3L and IL-7 supplementation concentrations were determined^9). […] The level of lineage skewing to non-T cell fates was also quantified in the absence of Notch ligand in order to assess the default cell differentiation supported by all medium types.

Substance: DL4: Notch ligand Delta-like-4 extracellular domain fused to the Fc region of human IgG1
- DN3 frequency at 20 μg/mL immobilized ligand ([1]; 20 μg/mL immobilized, no soluble ligand, day 7): generated DN3 cells at equivalent frequencies as in the 10 μg/mL coated DL4 control
- minimum concentration of adsorbed DL4 that supported DN3 cell generation ([1]; IMDM+BIT serum-free medium, 7 days of culture): 7.5 µg/mL
- generation of CD7+CD34+ cells ([2]; DL4 alone): can generate CD7+CD34+ cells
- generation of later stage progenitor T cells from CD34+ HSPCs ([2]; 9 or 14 days, matrix proteins in conjunction with DL4): insufficient to drive these progenitor cells to later stages of T cell development
- binding to DN vs. DP thymocytes [3]: binding double negative (DN; CD4− CD8−) and not double positive (DP, CD4+CD8+) thymocytes

Source: US12076342B2, “Method for generating progenitor t cells from stem and/or progenitor cells and use of same” (THE GOVERNING COUNCIL OF THE UNIVERSITY OF TORONTO, priority 2016, dated 2024)
